{"source": "patent US20050143362A1", "about": "(priority 2003, published 2005)", "key": {"[1]": {"tested_on": "hypogonadism in the adult male", "test": "Illustrative examples: danazol capsules given to hypogonadal adult men", "assay_type": "in vivo", "details": "after one month", "text": "A person reports a lethargic and depressed mood. Blood tests show a hypogonadism in which total testosterone is borderline normal range but SHBG levels are higher than normal. Free testosterone levels are abnormally low and the patient is diagnosed as hypogonadal.\nA person reports a general physical weakening and decreased libido. Blood tests show a high total testosterone level but SHBG levels are also in the very high range. Free testosterone levels are abnormally low and the patient is diagnosed as hypogonadal."}, "[2]": {"target": "T1, sex hormone binding globulin (SHBG) (Homo sapiens, UniProt P04278)", "T1 sequence (P04278 30-402)": "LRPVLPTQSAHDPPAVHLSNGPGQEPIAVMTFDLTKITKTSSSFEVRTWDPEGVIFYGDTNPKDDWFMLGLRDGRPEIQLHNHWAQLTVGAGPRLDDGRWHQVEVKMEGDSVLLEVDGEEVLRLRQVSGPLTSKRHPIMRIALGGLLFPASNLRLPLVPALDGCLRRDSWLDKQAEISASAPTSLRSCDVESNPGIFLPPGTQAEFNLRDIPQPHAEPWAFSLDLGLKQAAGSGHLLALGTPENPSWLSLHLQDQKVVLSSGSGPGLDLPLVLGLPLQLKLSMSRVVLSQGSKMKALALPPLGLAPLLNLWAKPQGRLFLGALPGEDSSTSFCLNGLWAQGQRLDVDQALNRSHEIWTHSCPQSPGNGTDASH", "details": "Pugeat et al. 1981; cited from earlier work"}, "progesterone receptors": {"target": "T2, progesterone receptors (Homo sapiens, UniProt P06401)", "T2 sequence (P06401 1-933)": "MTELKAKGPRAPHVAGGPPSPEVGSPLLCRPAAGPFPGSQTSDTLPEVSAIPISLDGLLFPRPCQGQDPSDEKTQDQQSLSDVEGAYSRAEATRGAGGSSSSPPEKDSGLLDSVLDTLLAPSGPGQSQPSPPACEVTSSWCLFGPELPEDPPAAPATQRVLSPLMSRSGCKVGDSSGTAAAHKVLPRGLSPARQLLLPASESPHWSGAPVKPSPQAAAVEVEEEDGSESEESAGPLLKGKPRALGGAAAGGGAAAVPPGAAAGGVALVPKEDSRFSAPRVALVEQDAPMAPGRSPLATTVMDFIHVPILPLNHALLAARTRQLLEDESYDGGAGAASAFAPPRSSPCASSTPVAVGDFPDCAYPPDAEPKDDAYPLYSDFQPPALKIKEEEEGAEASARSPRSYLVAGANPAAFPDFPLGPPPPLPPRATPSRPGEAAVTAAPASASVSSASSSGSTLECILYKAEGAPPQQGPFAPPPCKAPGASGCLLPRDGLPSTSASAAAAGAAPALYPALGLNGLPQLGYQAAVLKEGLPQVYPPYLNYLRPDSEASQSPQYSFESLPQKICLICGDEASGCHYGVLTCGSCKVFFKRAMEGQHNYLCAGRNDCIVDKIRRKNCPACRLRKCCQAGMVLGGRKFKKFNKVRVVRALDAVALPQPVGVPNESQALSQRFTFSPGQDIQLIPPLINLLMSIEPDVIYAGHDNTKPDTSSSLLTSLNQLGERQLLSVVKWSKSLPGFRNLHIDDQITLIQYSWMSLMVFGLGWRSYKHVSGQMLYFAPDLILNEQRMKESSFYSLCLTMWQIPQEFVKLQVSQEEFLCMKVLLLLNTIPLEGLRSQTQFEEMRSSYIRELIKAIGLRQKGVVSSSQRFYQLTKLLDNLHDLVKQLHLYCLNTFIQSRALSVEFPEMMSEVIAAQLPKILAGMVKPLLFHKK", "details": "Zurlo et al. 1990; cited from earlier work"}, "serum gonadotropins": {"tested_on": "serum gonadotropins", "details": "Gelfand et al. 1976; cited from earlier work"}, "[3]": {"details": "cited from earlier work"}, "[4]": {"details": "Example 1: person, one 25 milligram capsule three times daily"}, "[5]": {"details": "Example 2: person, one 25 milligram capsule twice a day"}}}
{"smiles": "C#C[C@]1(O)CC[C@H]2[C@@H]3CCC4=Cc5oncc5C[C@]4(C)[C@H]3CC[C@@]21C", "note": "[danazol, 17α-pregn-4-en-20-yno[2,3-d]isoxazol-17-ol]", "values": [{"measurement": "SHBG level (blood test)", "setting": "[1]; [4]", "result": "remained stable"}, {"measurement": "free testosterone (blood test)", "setting": "[1]; [4]", "result": "increased"}, {"measurement": "total testosterone level (blood test)", "setting": "[1]; [4]", "result": "remained stable"}, {"measurement": "vigor and mood reported by patient", "setting": "[1]; [4]", "result": "greater vigor and an improved mood"}, {"measurement": "SHBG level (blood test)", "setting": "[1]; [5]", "result": "lower levels"}, {"measurement": "free testosterone (blood test)", "setting": "[1]; [5]", "result": "new higher level"}, {"measurement": "libido reported by patient", "setting": "[1]; [5]", "result": "increased libido"}, {"measurement": "displacement of testosterone from SHBG", "setting": "[2]", "result": "competitive displacer of testosterone"}, {"measurement": "binding to progesterone receptors", "setting": "progesterone receptors", "result": "competitive binding"}, {"measurement": "serum gonadotropins", "setting": "serum gonadotropins", "result": "dose-dependent reduction"}, {"measurement": "androgenic potential", "setting": "[3]; Gelfand et al. 1976", "result": "markedly attenuated"}, {"measurement": "myogenic (anabolic) activity", "setting": "[3]; Gelfand et al. 1976", "result": "mildly myogenic"}, {"measurement": "androgen-like activity", "setting": "[3]; Potts et al. 1980", "result": "weak"}, {"measurement": "anabolic response", "setting": "[3]; whole males, low dosages, Dmowski et al. 1971", "result": "increased and stable, long term anabolic response"}]}
